According to patent publication US7232852B2, “Photopolymerizable compositions that include alicyclic/aromatic dioxiranes and novel dioxiranyl tetraoxaspiro [5.5] undecanes” (Curators of the University of Missouri, priority 2002, dated 2007):

Tests used:
[1] = Solubility of TOSUs in oxirane coreactant systems; format: physicochemical; details: 25° C.
[2] = Photoinitiated solution homopolymerization of BMOCHM-TOSU (FTIR, gel point); format: physicochemical; details: post irradiation, 20 wt % in methylene chloride
Protocol: The effect of irradiation time on the photoinitated homopolymerization of BMOCHM-TOSU monomer (20 wt % in methylene chloride) was evaluated by gel point determination and by FTIR spectroscopy. Selected IR absorption bands in the reaction mixture characteristic of hydroxyl, carbonyl and oxirane groups were monitored as a function of irradiation time. […] These observations indicate the possibility of homopolymer formation. The mixture gelled 1.5 min post irradiation.

Solubility in oxirane base UVR 6105 [1] | Solubility in oxirane base UVR 6105/PTHF (80/20) [1] | Solubility in oxirane base BOCPE [1] | Solubility in oxirane base BDDGE/PTHF (80/20) [1] | Compound | gel point (mixture gelled) [2]
15–25 wt % | 25 wt % |  |  | C1=CCC(CC2COC3(OC2)OCC(CC2CC=CCC2)CO3)CC1 (stereo not shown) [BCHEM, 3,9-Bis(cyclohex-3-enylmethyl)-1,5,7,11-tetraoxaspiro[5,5]undecane] | 
30 wt % | 25 wt % | <10 wt % |  | CC1CC2OC2CC1CC1COC2(OC1)OCC(CC1CC3OC3CC1C)CO2 (stereo not shown) [BMOCHM, 3,9-bis[(4-methyl-7-oxabicyclo[4.1.0]hept-3-yl)methyl]-1,5,7,11-tetraoxaspiro[5,5]undecane] | 1.5 min
30 wt % | 25 wt % | <10 wt % |  | C1CC2OC2CC1CC1COC2(OC1)OCC(CC1CCC3OC3C1)CO2 (stereo not shown) [BOCHM, 3,9-bis[(7-oxabicyclo[4.1.0]hept-3-yl)methyl]-1,5,7,11-tetraoxaspiro[5.5]undecane] | 
 | 40 wt % | >10 wt % |  | CCC1(CC)COC2(COC3(CCC4OC4C3)OC2)OC1 (stereo not shown) [DEODSH, 5,5-diethyl-19-oxdispiro[1,3-dioxane-2,5′-1,3-dioxane-2′,3″-bicyclo[4.1.0]heptane]] | 
 | <5 wt % | 10 wt % | 5 wt % | C1CC2(COC3(OC2)OCC2(CCC4OC4C2)CO3)CC2OC12 (stereo not shown) [DOTSHH, 7,26-dioxatrispiro[bicycle[4.1.0]heptane-3,5′-1,3-dioxane-2′2″-1,3-dioxane-5″,4′″-bicyclo[4.1.0]heptane]] | 
 |  | <5 wt % | <5 wt % | C1OC2(OCC13CC1OC1C3)OCC1(CO2)CC2OC2C1 (stereo not shown) [DOTSHX, 6,24-dioxatrispiro[bicyclo[3.1.0]hexane-3.5′-1,3-dioxane-2.2′-1,3-dioxane-5″3′″-bicyclo[3.1.0]hexane]] | 
